Data as given in patent US20140127120A1, “THERAPEUTIC AGENT FOR BONE FRACTURE COMPRISING CARBON DIOXIDE AS AN ACTIVE INGREDIENT” (NEOCHEMIR INC., priority 2011, published 2014).

How the values were obtained:
Assay type in all cases: in vivo, rat
[1] = system: 5-Week-old SD rats; assay: Bone growth promoting effect in rats (transdermal carbon dioxide absorption via external administration device)
Excerpt: (§1) Bone growth promoting effect in rats (using a carbon dioxide external administration device as a means for absorbing a therapeutic agent for bone fracture, a bone growth promoting agent, or a therapeutic or prophylactic agent for bone diseases containing carbon dioxide as an active ingredient)
5-Week-old SD rats were used as test animals. A carbon dioxide absorption aid consisting of 93.77% by weight of water, 5% by weight of glycerin, 0.65% by weight of carbomer, 0.15% by weight of sodium alginate, 0.15% by weight of sodium dihydrogen phosphate, 0.18% by weight of sodium hydroxide, 0.10% by weight of methylparaben was applied twice a week to a hair-shaved right lower limb of a rat of the carbon dioxide absorption group (n=6) in a thickness of 2 mm under anesthesia according to the patent document 7. The lower body of the rat was covered to seal with a bag having 4 cm width and 4 cm length and the top of the bag was bound tightly with a rubber band. Then, the bag was filled with 100% concentration of carbon dioxide through a vinyl tube from a carbon dioxide bomb in order to allow carbon dioxide to be absorbed for 10 minutes. The control group (n=3) was subjected to only the anesthetic procedure. The above mentioned procedures were continued for 3 months. After 3 months, the tibias of both legs were collected from all rats and the length of them was measured by X-ray. […]

[2] = system: 5-Week-old Wister rats; assay: Bone growth promoting effect in exercise-loaded rats
Method: as §1, with “effect in exercise-loaded rats (using” for “effect in rats (using”
5-Week-old Wister rats were matched based on their body weight and were divided into two groups (a control group: n=8; an exercise-loaded group: n=16). The running training for 30 minutes per day using an activity wheel was given to all rats for five continuous days. The exercise-loaded rats were matched based on the running distance on the fourth and fifth day as well as the body weight on the fifth day and were divided into two groups (a training group: n=8; a carbon dioxide absorption group: n=8). After shaving the lower body hair of all rats, the running training for 30 minutes per day using an activity wheel was given to the training group and the carbon dioxide absorption group. This training was done five times a week for 4 weeks. […] The tibias of both legs were collected from the rats, and then the entire length of the tibias was measured by X-ray. […] An auxotonic gristle plate of the tissue section was stained with Safranine O and its length was measured.

[3] = system: 12-week-old SD rats; assay: Bone fracture healing promoting effect in rats (simple femur fracture); conditions: carbon dioxide absorption 20 minutes, X-ray
Excerpt: as §1, with “Bone fracture healing” for “Bone growth”
According to the literature (Kokubo, T et al., J Orthop Res. 2003 May; 21(3): 503-510), a simple fracture was made in a femur of 12-week-old SD rats (n=23). The rats were matched based on their body weight and were divided into two groups (a control group: n=11; a carbon dioxide absorption group: n=12). In the same procedures as Example 1 except for adopting 20 minutes of the carbon dioxide absorption time, carbon dioxide absorption into the fractured limb was conducted. After making a fracture, X-ray images of the femur were taken for 2 rats of each group at the first week, 3 rats of each group at the second week, and 6 rats of the control group and the carbon dioxide absorption group at the third week. After the completion of the test, all rats were euthanized and the femurs were collected from the rats.

## O=C=O [carbon dioxide]
[1]; 100% carbon dioxide to right lower limb 10 minutes twice a week for 3 months, X-ray, P<0.05, FIG. 1
  length of the right tibia (ratio of the length between the right tibia and the left tibia) versus control group: statistically significantly longer
[1]; after 3 months of carbon dioxide absorption, FIG. 2
  number of proliferating cells (PCNA staining of tibia auxotonic gristle area) versus control group: larger
[2]; 4 weeks, Safranine O staining, FIG. 4
  length of the auxotonic gristle plate versus training group and control group: statistically significantly longer
[2]; running training plus carbon dioxide absorption to both lower limbs 10 minutes, five times a week for 4 weeks, X-ray, P<0.1, FIG. 3
  length of tibias versus training group: statistically significantly longer
[3]; first and second week
  fracture healing at the first and second week: not healed
[3]; third week (control group 1/6)
  rats with fracture completely healed at the third week: 6/7
